Reference: paper PMC3935609 (Biochemistry, 2013)

Columns and labels:
[1] = target: T1, GLIC (Gloeobacter violaceus ligand-gated ion channel) (Gloeobacter violaceus, UniProt Q7NDN8); experiment: [3H]AziPm photoaffinity labeling of purified GLIC at pH […] with Edman sequencing; type: cell-based
T1 sequence (Q7NDN8 44-359): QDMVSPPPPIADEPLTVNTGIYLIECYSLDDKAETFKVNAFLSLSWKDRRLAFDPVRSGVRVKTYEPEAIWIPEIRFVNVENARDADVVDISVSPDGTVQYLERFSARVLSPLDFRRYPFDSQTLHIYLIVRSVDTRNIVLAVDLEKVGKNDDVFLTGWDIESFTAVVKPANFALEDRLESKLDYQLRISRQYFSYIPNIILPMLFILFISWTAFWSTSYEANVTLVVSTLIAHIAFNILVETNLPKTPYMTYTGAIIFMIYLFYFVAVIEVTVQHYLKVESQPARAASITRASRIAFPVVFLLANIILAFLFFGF

[2] = target: T1, GLIC (Gloeobacter violaceus ligand-gated ion channel); experiment: competition; type: cell-based

SMILES | IC50 [1] | IC50 [2]
CC(C)c1ccc(C2(C(F)(F)F)N=N2)cc1O [AziPm, 2-isopropyl-5-[3-(trifluoromethyl)-3H-diazirin-3-yl]phenol] | 51.4 ± 5.3 µM | –
CC(C)c1cccc(C(C)C)c1O [PPF, Propofol] | – | 21.4 ± 1.2 µM
